SMILES strings stand for the structures. Read-outs that look alike come from different tables or passages of the source. Numbered stars: 1 amine (or outer) side, 2 acyl side, 3 side chain; on linkers, the order of the positions; unused ones are H or OH. Square brackets hold non-standard residues; d marks the D form. Peptide text beside a SMILES is read from it. X3 = NCCCC[C@H](N)CN([C@@H](CCCCN)C(=O)[*:2])[*:1]; Tle = CC(C)(C)[C@H](N)C(=O)O Some results are limits rather than exact numbers.

In one data set the target is T1, rNTS2 receptor (Rattus norvegicus, UniProt Q63384).
T1 construct: expressed in transfected cells; host or cells: DRG-F11 cells, transient transfection, membranes
T1 sequence (Q63384 1-416): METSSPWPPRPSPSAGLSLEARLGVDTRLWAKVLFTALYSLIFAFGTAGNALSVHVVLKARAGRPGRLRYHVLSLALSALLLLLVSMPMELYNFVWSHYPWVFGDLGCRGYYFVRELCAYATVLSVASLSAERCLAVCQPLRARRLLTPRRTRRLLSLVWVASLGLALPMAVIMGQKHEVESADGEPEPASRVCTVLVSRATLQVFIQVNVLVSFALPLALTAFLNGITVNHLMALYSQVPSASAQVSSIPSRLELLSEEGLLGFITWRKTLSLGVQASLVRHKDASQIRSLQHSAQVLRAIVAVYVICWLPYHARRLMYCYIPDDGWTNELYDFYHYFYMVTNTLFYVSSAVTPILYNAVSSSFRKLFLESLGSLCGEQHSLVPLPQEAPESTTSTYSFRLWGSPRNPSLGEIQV
Briefly: Competitive radioligand binding assay on the rNTS2 receptor. Particulars: for inhibition at 1 µM: 1 μM macrocycle dose, read-out: NTS2 % displ at 1 μM (radiolabeled neurotensin displaced); for IC50: 125I-[Tyr3]-NT competition, rNTS2 membranes, read-out: NTS2 IC50. The procedure:
DRG-F11 cells were cultured in DMEM supplemented with 10% FBS, 100 U/mL penicillin, 100 μg/mL streptomycin, and 20 mM HEPES.
Membranes were prepared by scraping cells off the culture dish with 50 mM Tris ph 7.5 and centrifuged at 15,000 g for 5 min at 4° C. The pellet was resuspended in 10 mM Tris, 1 mM EDTA pH 7.5 and sonicated for 30 s prior to be centrifugated at 15,000 g for 30 min at 4° C. The pellet was then re-suspended in binding 9 buffer. […] All other steps in binding experiments were unchanged comparing to the one using the NTS1 receptor.

For data set [1], the target named is T2, hNTS1 (β-arrestin 2 recruitment) (Homo sapiens, UniProt P30989).
T2 construct: expressed in transfected cells; host or cells: CHO-K1, transient transfection with PEI
T2 sequence (P30989 whole entry): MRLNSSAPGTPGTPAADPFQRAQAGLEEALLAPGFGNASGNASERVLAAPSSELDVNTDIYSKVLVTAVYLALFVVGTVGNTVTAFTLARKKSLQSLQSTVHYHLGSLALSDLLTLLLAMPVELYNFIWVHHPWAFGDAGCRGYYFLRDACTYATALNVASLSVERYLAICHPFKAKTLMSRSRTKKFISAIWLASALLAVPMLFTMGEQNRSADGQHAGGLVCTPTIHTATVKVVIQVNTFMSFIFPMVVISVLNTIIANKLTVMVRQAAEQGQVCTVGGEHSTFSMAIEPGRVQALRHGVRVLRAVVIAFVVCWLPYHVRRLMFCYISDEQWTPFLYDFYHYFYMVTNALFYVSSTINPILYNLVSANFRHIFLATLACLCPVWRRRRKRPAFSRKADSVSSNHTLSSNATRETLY
T2 sequence (P32121 whole entry partner): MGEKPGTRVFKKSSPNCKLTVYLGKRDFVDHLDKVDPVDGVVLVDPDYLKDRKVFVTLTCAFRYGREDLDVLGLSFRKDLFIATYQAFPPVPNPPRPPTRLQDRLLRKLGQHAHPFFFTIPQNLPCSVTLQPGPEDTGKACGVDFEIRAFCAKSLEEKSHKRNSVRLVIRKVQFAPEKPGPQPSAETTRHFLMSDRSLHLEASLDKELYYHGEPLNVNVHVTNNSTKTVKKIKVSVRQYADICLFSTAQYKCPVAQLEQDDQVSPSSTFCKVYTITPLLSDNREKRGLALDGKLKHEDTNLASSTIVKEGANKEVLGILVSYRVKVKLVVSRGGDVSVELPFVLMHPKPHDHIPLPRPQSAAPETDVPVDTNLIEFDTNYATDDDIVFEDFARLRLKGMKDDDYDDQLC
Briefly: BRET biosensor assay, β-arrestin 2 recruitment. The data set is classed as cell-based. Background: Bioluminescence resonance energy transfer reports proximity on the nanometre scale.
Method: CHO-K1 cells were cultured in DMEM-F12 supplemented with 10% FBS, 100 U/mL penicillin, 100 μg/mL streptomycin, and 20 mM HEPES at 37° C. in a humidified chamber at 5% CO2. Cells were seeded into T75 flasks at a density of 20 000 cells/cm^2; 24 h later, cells were transfected with plasmids coding for hNTS1-Green fluorescent protein 10(GFP10)/Rluc (Renilla Luciferase)II-β-arrestin 1 or hNTS1-GFP10/RlucII-β-arrestin2, or with hNTS1/Gαq-RlucII/Gβ1/IGFP10-Gγ1 or hNTS1/Gα13-RlucII/Gβ1/GFP10-Gγ1 using polyethylenimine (PEI). Cells were transferred into 96-well plates at a concentration of 50 000 cells/well 24 h after transfection and incubated at 37° C. overnight. They were then washed with PBS and 90 μL HBSS was added in each well. […] After stimulation, coelenterazine 400A was added in each well to a final concentration of 5 μM and the plate was read using filter selected for BRET2 measurement (BRET2 High efficiency filter set, λemRlucII: 410±80 nm, λemGFP10: 515±40 nm) on a Mithras 2 plate reader (Berthold Technologies, Tennessee, USA). BRET2 ratio was determined as GFP10em/RlucIIem. […] EC50 (Effective Concentration 50) values were determined using the dose response-stimulation log(agonist) vs response (three parameters) and represent the mean±SEM of at least three separate experiments, each performed in triplicate.
NTS1 is capable of activating several signaling pathways, thus the activation of Gαq, Gα13, β-arrestin 1 and β-arrestin 2 pathways was monitored. The ability of compounds of the invention to activate the NTS1 receptor was assessed using Bioluminescence Resonance Energy Transfer (BRET)-based biosensors, reporting the dissociation of G proteins (Table III, column EC50 Gq) and the recruitment of β-arrestins to the receptor (Table III, column EC50 βarr).

The nature of a further data set: Plasma stability assay. The data set is classed as in vitro ADME. The following applies: rat plasma at 37° C. On the procedure:
Rat plasma was obtained by centrifugation of rat blood (13000 rpm, 5 min, 4° C.). […] Proteolytic degradation was quenched by adding 70 μL of acetonitrile/ethanol (1:1), 0.5% nicotinamide solution and vortexing. […] Data were analyzed using GraphPad Prism 7's one phase decay equation.

The test system of the next data set is rats. Briefly: Blood pressure (hypotension). Particulars: 0.01 mg/kg; for Arterial blood pressure response / Blood pressure drop, first phase / Blood pressure in phase 3: rat, i.v. The data set is classed as in vivo, rat. On the procedure: Mean, systolic and diastolic arterial blood pressure and a heart rate were measured through a catheter (PE 50 filled with heparinized saline) inserted in the right carotid artery and connected to a Micro-Med™ transducer (model TDX-300, USA) linked to a blood pressure Micro-Med™ analyzer (model BPA-100c). Another catheter (PE 10 filled with heparinized saline) was inserted in the left jugular vein for injection of test compounds at 0.01 mg/kg (volume 1 mL/kg, 5-10 s) or 0.9% saline. Blood pressure was recorded each second for up to 900 seconds following intravenous injection.

For the next data set, the target named is hNTS1 receptor (Homo sapiens, UniProt P30989). Put plainly: Competitive radioligand binding assay on the hNTS1 receptor. Particulars: 125I-[Tyr3]-NT competition, hNTS1 membranes; mean ± SEM; read-out: NTS1 IC50.
hNTS1 receptor, sequence (P30989 whole entry): as the sequence (P30989 whole entry) above
Data set [2] has as its target T3, hNTS1 (β-arrestin 1 recruitment) (Homo sapiens, UniProt P30989).
T3 construct: expressed in transfected cells; host or cells: CHO-K1, transient transfection with PEI
Put plainly: BRET biosensor assay, β-arrestin 1 recruitment. The data set is classed as cell-based. The following applies: CHO-K1 cells transiently transfected with hNTS1 and biosensors, mean ± SEM, read-out: EC50 β-arr1.
Method: CHO-K1 cells were cultured in DMEM-F12 supplemented with 10% FBS, 100 U/mL penicillin, 100 μg/mL streptomycin, and 20 mM HEPES at 37° C. in a humidified chamber at 5% CO2. Cells were seeded into T75 flasks at a density of 20 000 cells/cm^2; 24 h later, cells were transfected with plasmids coding for hNTS1-Green fluorescent protein 10(GFP10)/Rluc (Renilla Luciferase)II-β-arrestin 1 or hNTS1-GFP10/RlucII-β-arrestin2, or with hNTS1/Gαq-RlucII/Gβ1/IGFP10-Gγ1 or hNTS1/Gα13-RlucII/Gβ1/GFP10-Gγ1 using polyethylenimine (PEI). Cells were transferred into 96-well plates at a concentration of 50 000 cells/well 24 h after transfection and incubated at 37° C. overnight. […] After stimulation, coelenterazine 400A was added in each well to a final concentration of 5 μM and the plate was read using filter selected for BRET2 measurement (BRET2 High efficiency filter set, λemRlucII: 410±80 nm, λemGFP10: 515±40 nm) on a Mithras 2 plate reader (Berthold Technologies, Tennessee, USA). BRET2 ratio was determined as GFP10em/RlucIIem. […] EC50 (Effective Concentration 50) values were determined using the dose response-stimulation log(agonist) vs response (three parameters) and represent the mean±SEM of at least three separate experiments, each performed in triplicate.
NTS1 is capable of activating several signaling pathways, thus the activation of Gαq, Gα13, β-arrestin 1 and β-arrestin 2 pathways was monitored. […]

The mark [3] stands for this setting: 24 h is the longest time tested.
Setting [4] is: BRET, CHO-K1 cells transiently transfected with hNTS1 and biosensors, mean ± SEM, read-out: EC50 β-arr2.

T3 sequence (P30989 whole entry): as above
T3 sequence (P49407 whole entry partner): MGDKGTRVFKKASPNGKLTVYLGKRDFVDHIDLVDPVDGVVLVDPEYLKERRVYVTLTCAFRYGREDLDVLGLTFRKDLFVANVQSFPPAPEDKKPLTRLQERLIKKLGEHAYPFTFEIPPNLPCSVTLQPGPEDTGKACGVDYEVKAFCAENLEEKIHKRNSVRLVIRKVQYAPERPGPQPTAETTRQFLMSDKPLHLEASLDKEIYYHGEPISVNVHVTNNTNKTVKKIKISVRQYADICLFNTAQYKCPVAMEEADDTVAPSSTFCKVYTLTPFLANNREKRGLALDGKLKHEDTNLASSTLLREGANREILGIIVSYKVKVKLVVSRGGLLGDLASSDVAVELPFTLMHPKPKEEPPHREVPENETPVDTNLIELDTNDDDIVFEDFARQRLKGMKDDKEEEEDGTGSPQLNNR
Method for hNTS1 receptor: CHO-K1 (Chinese Hamster Ovary) cells stably expressing hNTS1 (ES-690-C from PerkinElmer, Montréal, Canada) were cultured in DMEM F12 culture medium at 37° C. in a humidified chamber under 5% CO2. Culture media were supplemented with 10% FBS, 100 U/mL penicillin, 100 μg/mL streptomycin, 20 mM HEPES, and 0.4 mg/mL G418 at 37° C.
Cells were frozen when they reached 80% confluency. They were scrapped off the dish with 10 mM Tris buffer, 1 mM EDTA, pH 7.5 and centrifuged at 15,000 g for 5 min at 4° C. The pellet was then re-suspended in binding buffer.
Competitive radioligand binding experiments were performed by incubating 15 μg of cell membranes expressing the hNTS1 receptor with 45 pM of ^125I-[Tyr^3]-NT (2200 Ci/mmol purchased from PerkinElmer, Billerica, Mass.) in binding buffer (50 mM Tris-HCl, pH7.5, 0.2% BSA) in the presence of increasing concentrations of the compounds of the invention ranging from 10^−11 to 10^−4 M for 60 min at 25° C. […] Glass filters were then counted using a γ-counter (2470 Wizard2, PerkinElmer, Missisauga, Ontario, Canada).
IC50 (Inhibitory Concentration 50) values were determined from the competition curves as the unlabeled ligand concentration inhibiting half of the ^125I-[Tyr]-NT-specific binding. […]

The IC50 is the concentration that inhibits the measured activity by half. The EC50 is the concentration at which the effect is half-maximal. Turning to `CCC(C)[C@H](NC(=O)[C@@H]1Cc2ccc(O)c(c2)CC=CCCCCCC[C@](C)(N)C(=O)N[C@@H](CCCCN)C(=O)N2CCC[C@H]2C(=O)N1)C(=O)N[C@@H](CC(C)C)C(=O)O` (stereo partly drawn) [Compound 3, c[OctenylAKPY(All)]IL], at rNTS2 receptor, the inhibition at 1 µM was 96% and the half-maximal inhibitory concentration (IC50) was determined as 25.8 nM. The molecule further registered an EC50 in data set [1] of 28 ± 0.1 nM. Moreover, in the data set “Plasma stability assay” (setting [3]), the Plasma half-life came out at 24 h. In the data set on rats, the “Hypotension (I.V.)” value is given as “Triphasique”; the “Arterial blood pressure response” value was “triphasic”; the “Blood pressure drop, first phase” value is “about −25 mmHg”; the “Blood pressure in phase 3” value is “slowly returned towards baseline”.
Regarding `CCC(C)[C@H](NC(=O)[C@@H]1Cc2ccc(O)c(c2)CC=CCNCCCC[C@@H](N)C(=O)N[C@@H](CCCCN)C(=O)N2CCC[C@H]2C(=O)N1)C(=O)N[C@@H](CC(C)C)C(=O)O` (stereo partly drawn) [Compound 4, c[K(All)KPY(All)]IL], the inhibition at 1 µM at rNTS2 receptor is 93%. For the same molecule, the Plasma half-life in the data set “Plasma stability assay” (setting [3]) was determined as 24 h.
As to `CCC(C)[C@H](NC(=O)[C@@H]1Cc2ccc(O)c(c2)CC=CCCCCCCC(=O)N[C@@H](CCCNC(=N)N)C(=O)N2CCC[C@H]2C(=O)N1)C(=O)N[C@@H](CC(C)C)C(=O)O` (stereo partly drawn) [Compound 11, c[nonenoic acid-RPY(All)]IL], the inhibition at 1 µM on rNTS2 receptor turned out to be 78%.
As a reminder, the half-life is how long it takes for the measured level to halve. Low readings indicate fast loss, high ones slow loss. `CCC(C)[C@H](NC(=O)[C@H](Cc1ccc(O)cc1)NC(=O)[C@@H]1CCCN1C(=O)[C@H](CCCNC(=N)N)NC(=O)[C@@H](N)CCCNC(=N)N)C(=O)N[C@@H](CC(C)C)C(=O)O` (stereo partly drawn) [NT 8-13, RRPYIL, reference compound]: the inhibition at 1 µM on rNTS2 receptor worked out at 100%. Besides, the half-life at […] in the data set “Plasma stability assay” came out at 0.05 h.
As to `CCC(C)[C@H](NC(=O)[C@@H]1Cc2ccc(O)c(c2)CC=CCCCCCCC(=O)N[C@@H](CCCCN)C(=O)N2CCC[C@H]2C(=O)N1)C(=O)NC(CC(C)C)C(=O)O` (stereo partly drawn) [Compound 1, c[nonenoic acid KPY(All)]IL], the EC50 in data set [1] (setting [4]) was determined as 1370 ± 126 nM. In the data set “Plasma stability assay” (setting [3]), this molecule gave a half-life at […] of 12 h.
`C=CCNCCCC[C@H](N)C(=O)N[C@@H](CCCCN)C(=O)N1CCC[C@H]1C(=O)N[C@@H](Cc1ccc(O)c(CC=C)c1)C(=O)N[C@H](C(=O)N[C@@H](CC(C)C)C(=O)O)C(C)CC` (stereo partly drawn) [Compound 2-L, K(All)KPY(All)IL] yielded a Plasma half-life in the data set “Plasma stability assay” of 0.083 h.
`CCC(C)[C@H](NC(=O)[C@@H]1Cc2ccc(O)c(c2)CC=CCN(S(=O)(=O)c2ccccc2[N+](=O)[O-])CCCC[C@H](N)C(=O)N[C@@H](CCCCN)C(=O)N2CCC[C@H]2C(=O)N1)C(=O)N[C@@H](CC(C)C)C(=O)O` (stereo partly drawn) [Compound 5, c[K(All)(S(O)2(o-nitrophenyl))KPY(All)]IL]: at rNTS2 receptor, the inhibition at 1 µM amounted to 96% and the half-maximal inhibitory concentration (IC50) is 511 nM. Further, the half-life at […] in the data set “Plasma stability assay” (setting [3]) was 1.4 h.
`CCOC(=O)[C@H](CC(C)C)NC(=O)[C@@H](NC(=O)[C@H](Cc1c[nH]c2ccccc12)NC(=O)[C@@H]1CCCN1C(=O)[C@H](CCCCN)NC[C@@H](N)CCCCN)C(C)(C)C` [PD149163, H-Lys-[ψCH2NH]-Lys-Pro-Trp-tertLeu-Leu-OEt, reference compound] (H-[X3]PW[Tle]L-OEt): in the data set with rats, the “Arterial blood pressure response” value is listed as “triphasic”; the “Blood pressure drop, first phase” value was “about −25 mmHg”; the “Blood pressure in phase 3” value is “more sustained”.
In the data set “Plasma stability assay” (setting [3]), `C=CCNCCCC[C@H](N)C(=O)N[C@@H](CCCCN)C(=O)N1CCC[C@H]1C(=O)N[C@@H](Cc1ccc(O)c(CC=C)c1)C(=O)N[C@H](C(=O)N[C@@H](CC(C)C)C(=O)O)C(C)CC` (stereo partly drawn) [Compound 1-L, nonenoic acid KPY(All)IL] yielded a Plasma half-life of 4 h.
In the case of `CCC(C)[C@H](NC(=O)[C@H]1Cc2ccc(O)c(c2)CC=CCCCCCC[C@](C)(N)C(=O)N[C@@H](CCCCN)C(=O)N2CCC[C@H]2C(=O)N1)C(=O)N[C@@H](CC(C)C)C(=O)O` (stereo partly drawn) [Compound 12, c[OctenylAKPY(All)]IL], the IC50 at hNTS1 receptor is above 10000 nM; on rNTS2 receptor it was 1100 nM.
Take `CCC(C)[C@H](NC(=O)[C@@H]1Cc2ccc(O)c(c2)CC=CCNCC[C@H](N)C(=O)N[C@@H](CCCCN)C(=O)N2CCC[C@H]2C(=O)N1)C(=O)N[C@@H](CC(C)C)C(=O)O` (stereo partly drawn) [Compound 8, c[Dab(All)KPY(All)]IL]: the inhibition at 1 µM on rNTS2 receptor worked out at 64%. Also, the half-life at […] in the data set “Plasma stability assay” (setting [3]) is 2.5 h.
For `CCC(C)[C@H](NC(=O)[C@@H]1Cc2ccc(O)c(c2)CC=CCCCNCCCC[C@H](N)C(=O)N[C@@H](CCCCN)C(=O)N2CCC[C@H]2C(=O)N1)C(=O)N[C@@H](CC(C)C)C(=O)O` (stereo partly drawn) [Compound 10, c[K(pentenyl)KPY(All)]IL], the inhibition at 1 µM at rNTS2 receptor worked out at 105%. The half-life at […] in the data set “Plasma stability assay” is 0.3 h.
For the molecule `CCC(C)[C@H](NC(=O)[C@@H]1Cc2ccc(O)c(c2)CC=CCCNCCCC[C@H](N)C(=O)N[C@@H](CCCCN)C(=O)N2CCC[C@H]2C(=O)N1)C(=O)N[C@@H](CC(C)C)C(=O)O` (stereo partly drawn) [Compound 9, c[K(butenyl)KPY(All)]IL], on rNTS2 receptor, the inhibition at 1 µM was found to be 104%. In the data set “Plasma stability assay”, the half-life at […] was 0.25 h.
For `CCC(C)[C@H](NC(=O)[C@@H]1Cc2ccc(O)c(c2)CC=CCNCCCCCC(=O)N[C@@H](CCCCN)C(=O)N2CCC[C@H]2C(=O)N1)C(=O)N[C@@H](CC(C)C)C(=O)O` (stereo partly drawn) [Compound 6, c[aminohex-6-enoic acid(All)KPY(All)]IL], the IC50 on hNTS1 receptor is 500 ± 22 nM. Besides, at rNTS2 receptor, the inhibition at 1 µM came out at 93%. Moreover, the concentration giving a half-maximal response (EC50) in data set [2] turned out to be 96 ± 0.07 nM; in data set [1] (setting [4]) it was 96 ± 0.05 nM. Besides, the Plasma half-life in “Plasma stability assay” (setting [3]) was found to be 24 h.

These data come from patent publication US11591366B2, “Macrocyclic compounds and methods of preventing or treating pain” (SOCPRA SCIENCES SANTÉ ET HUMAINES S.E.C., priority 2017, dated 2023).
